From paper PMC5564600 (Oncotarget, 2017)
Read-outs that look alike come from different tables or passages of the source.

Assays:
Assay type in all cases: binding
[1] = target: T1, panel of 442 kinases (Homo sapiens, UniProt P00533, T790M); experiment: biochemical; conditions: EGFR(T790M); for remaining activity at 1 µM: read-out: % of control at 1 µM
T1 construct: purchased Ambit Biosciences (scanMAXX KINOMEscan)

[2] = target: T2, panel of 442 kinases (Homo sapiens, UniProt P10721, V559D/V654A); experiment: biochemical; conditions: kinase KIT(V559D,V654A); for remaining activity at 1 µM: read-out: % of control at 1 µM
T2 construct: purchased Ambit Biosciences (scanMAXX KINOMEscan)
T2 sequence (P10721 26-976 V559D/V654A): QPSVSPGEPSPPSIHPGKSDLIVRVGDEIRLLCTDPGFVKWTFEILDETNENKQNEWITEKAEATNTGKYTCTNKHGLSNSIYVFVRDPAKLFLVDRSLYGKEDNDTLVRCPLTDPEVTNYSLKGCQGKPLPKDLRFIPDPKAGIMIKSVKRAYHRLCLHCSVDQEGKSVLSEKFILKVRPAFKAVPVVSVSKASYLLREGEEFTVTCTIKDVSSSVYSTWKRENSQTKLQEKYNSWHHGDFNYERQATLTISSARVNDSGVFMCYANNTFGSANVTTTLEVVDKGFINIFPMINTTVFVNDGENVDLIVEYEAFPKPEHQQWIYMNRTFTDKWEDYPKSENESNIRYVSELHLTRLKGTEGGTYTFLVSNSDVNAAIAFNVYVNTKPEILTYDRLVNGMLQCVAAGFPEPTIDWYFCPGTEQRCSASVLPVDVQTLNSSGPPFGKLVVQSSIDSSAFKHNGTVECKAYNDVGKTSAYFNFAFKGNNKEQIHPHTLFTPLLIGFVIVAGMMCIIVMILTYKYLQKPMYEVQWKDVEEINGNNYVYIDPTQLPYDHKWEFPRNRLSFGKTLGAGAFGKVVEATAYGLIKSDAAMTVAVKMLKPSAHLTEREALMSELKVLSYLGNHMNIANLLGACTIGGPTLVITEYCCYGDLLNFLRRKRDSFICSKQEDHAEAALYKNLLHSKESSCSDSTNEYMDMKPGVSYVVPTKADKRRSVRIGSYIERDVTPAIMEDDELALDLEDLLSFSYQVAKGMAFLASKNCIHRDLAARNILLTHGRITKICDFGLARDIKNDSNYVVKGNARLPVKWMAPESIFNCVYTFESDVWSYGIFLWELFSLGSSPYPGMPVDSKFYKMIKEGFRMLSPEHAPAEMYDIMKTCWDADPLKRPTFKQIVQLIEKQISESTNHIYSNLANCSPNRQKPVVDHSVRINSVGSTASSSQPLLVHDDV

[3] = target: T3, panel of 442 kinases (Homo sapiens, UniProt P11362); experiment: biochemical; conditions: FGFR1; for remaining activity at 1 µM: read-out: % of control at 1 µM
T3 construct: purchased Ambit Biosciences (scanMAXX KINOMEscan)

[4] = target: T4, panel of 442 kinases (Homo sapiens, UniProt P22694); experiment: biochemical; conditions: kinase PKAC-beta; for remaining activity at 1 µM: read-out: PKAC-beta (% of control at 1 µM)
T4 construct: purchased Ambit Biosciences (scanMAXX KINOMEscan)

[5] = target: T5, panel of 442 kinases (Homo sapiens, UniProt P46734); experiment: biochemical; conditions: kinase MEK3; for remaining activity at 1 µM: read-out: % of control at 1 µM
T5 construct: purchased Ambit Biosciences (scanMAXX KINOMEscan)
T5 sequence (P46734 1-347): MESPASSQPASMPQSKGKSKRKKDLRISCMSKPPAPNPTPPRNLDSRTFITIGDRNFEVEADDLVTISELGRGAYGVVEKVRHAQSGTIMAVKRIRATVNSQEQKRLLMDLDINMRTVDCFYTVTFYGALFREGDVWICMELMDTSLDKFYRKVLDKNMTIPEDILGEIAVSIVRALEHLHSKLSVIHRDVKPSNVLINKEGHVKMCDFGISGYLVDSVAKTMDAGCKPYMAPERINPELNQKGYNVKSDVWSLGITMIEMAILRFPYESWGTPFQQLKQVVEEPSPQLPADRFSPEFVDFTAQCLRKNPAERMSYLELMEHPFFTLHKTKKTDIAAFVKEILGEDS

[6] = target: T6, panel of 442 kinases (Homo sapiens, UniProt Q13233); experiment: biochemical; conditions: kinase MAP3K1; for remaining activity at 1 µM: read-out: % of control at 1 µM
T6 construct: purchased Ambit Biosciences (scanMAXX KINOMEscan)
T6 sequence (Q13233 whole entry): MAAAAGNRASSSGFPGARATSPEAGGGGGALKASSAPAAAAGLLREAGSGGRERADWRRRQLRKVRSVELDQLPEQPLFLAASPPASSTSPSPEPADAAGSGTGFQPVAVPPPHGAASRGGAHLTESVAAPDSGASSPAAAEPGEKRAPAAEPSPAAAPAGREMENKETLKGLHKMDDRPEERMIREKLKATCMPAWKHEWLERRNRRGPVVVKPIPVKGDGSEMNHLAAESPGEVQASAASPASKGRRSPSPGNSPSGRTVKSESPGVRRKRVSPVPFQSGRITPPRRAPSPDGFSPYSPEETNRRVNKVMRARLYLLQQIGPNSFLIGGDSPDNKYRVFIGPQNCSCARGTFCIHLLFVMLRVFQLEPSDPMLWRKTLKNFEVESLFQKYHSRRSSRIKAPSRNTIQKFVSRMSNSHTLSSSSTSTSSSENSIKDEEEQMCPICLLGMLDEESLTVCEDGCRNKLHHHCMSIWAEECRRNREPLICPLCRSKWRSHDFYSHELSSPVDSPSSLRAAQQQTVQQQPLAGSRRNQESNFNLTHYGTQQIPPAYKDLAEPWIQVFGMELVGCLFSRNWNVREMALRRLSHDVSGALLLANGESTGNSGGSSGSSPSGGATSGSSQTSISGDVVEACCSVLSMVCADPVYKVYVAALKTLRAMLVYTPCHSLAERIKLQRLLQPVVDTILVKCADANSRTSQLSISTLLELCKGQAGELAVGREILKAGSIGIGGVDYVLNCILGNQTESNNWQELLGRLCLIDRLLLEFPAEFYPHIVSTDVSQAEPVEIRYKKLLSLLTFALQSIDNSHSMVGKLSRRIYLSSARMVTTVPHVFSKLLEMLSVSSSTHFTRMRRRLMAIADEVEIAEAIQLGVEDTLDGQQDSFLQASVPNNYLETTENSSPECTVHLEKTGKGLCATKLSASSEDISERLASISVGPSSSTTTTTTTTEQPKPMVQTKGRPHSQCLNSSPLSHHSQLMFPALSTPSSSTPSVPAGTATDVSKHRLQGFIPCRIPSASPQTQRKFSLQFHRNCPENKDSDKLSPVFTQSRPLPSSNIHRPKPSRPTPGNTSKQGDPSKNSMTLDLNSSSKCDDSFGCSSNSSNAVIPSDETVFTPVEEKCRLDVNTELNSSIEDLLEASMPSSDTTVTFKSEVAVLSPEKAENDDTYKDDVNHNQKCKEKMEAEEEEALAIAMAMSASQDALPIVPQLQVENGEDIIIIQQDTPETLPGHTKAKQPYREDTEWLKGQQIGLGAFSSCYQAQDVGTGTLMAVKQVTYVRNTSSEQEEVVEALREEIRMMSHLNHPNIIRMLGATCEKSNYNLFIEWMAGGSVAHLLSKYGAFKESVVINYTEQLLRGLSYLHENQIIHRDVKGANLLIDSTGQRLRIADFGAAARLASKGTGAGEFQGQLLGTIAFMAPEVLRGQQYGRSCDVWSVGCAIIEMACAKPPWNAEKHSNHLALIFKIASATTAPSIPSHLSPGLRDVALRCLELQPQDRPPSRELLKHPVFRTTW

[7] = target: T7, panel of 442 kinases (Homo sapiens, UniProt Q9NYY3); experiment: biochemical; conditions: kinase PLK2; for remaining activity at 1 µM: read-out: PLK2 (% of control at 1 µM)
T7 construct: purchased Ambit Biosciences (scanMAXX KINOMEscan)

[8] = target: T8, pseudokinase JH2 domain of JAK1 (Homo sapiens, UniProt P23458); experiment: KINOMEscan, JAK1 JH2 domain; conditions: for remaining binding at 1 µM / remaining binding at 10 µM: kinase JAK1(JH2domain-pseudokinase); for remaining binding at 1 µM: read-out: % of control at 1 µM; for remaining binding at 10 µM: read-out: % of control at 10 µM
T8 construct: the pseudokinase JH2 domain of JAK1 (89%); purchased Ambit Biosciences (scanMAXX KINOMEscan)

[9] = target: T9, CLK1 (Homo sapiens, UniProt P49759); experiment: KINOMEscan, CLK1; conditions: for remaining binding at 1 µM: read-out: % of control at 1 µM
T9 construct: purchased Ambit Biosciences (scanMAXX KINOMEscan)
T9 sequence (P49759 whole entry): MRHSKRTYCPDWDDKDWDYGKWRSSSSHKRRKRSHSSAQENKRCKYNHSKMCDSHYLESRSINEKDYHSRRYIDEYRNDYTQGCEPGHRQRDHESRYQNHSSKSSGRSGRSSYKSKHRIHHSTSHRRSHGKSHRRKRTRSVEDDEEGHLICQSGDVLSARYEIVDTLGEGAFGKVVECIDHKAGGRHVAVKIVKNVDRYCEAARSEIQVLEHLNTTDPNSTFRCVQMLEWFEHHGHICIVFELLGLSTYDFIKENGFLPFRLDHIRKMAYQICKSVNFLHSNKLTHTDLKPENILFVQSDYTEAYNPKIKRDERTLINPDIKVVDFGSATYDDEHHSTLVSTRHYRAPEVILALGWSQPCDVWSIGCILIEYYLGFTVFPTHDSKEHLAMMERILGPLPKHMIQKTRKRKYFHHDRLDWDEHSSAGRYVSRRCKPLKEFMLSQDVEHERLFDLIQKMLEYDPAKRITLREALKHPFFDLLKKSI

[10] = target: T10, CLK4 (Homo sapiens, UniProt Q9HAZ1); experiment: KINOMEscan, CLK4; conditions: for remaining binding at 1 µM: read-out: % of control at 1 µM
T10 construct: purchased Ambit Biosciences (scanMAXX KINOMEscan)

[11] = target: T11, FLT3 (D835Y mutant) (Homo sapiens, UniProt P36888, D835Y); experiment: KINOMEscan, FLT3 D835Y; conditions: for remaining binding at 1 µM / remaining binding at 10 µM: FLT3(D835Y); for remaining binding at 1 µM: read-out: % of control at 1 µM; for remaining binding at 10 µM: read-out: % of control at 10 µM
T11 construct: purchased Ambit Biosciences (scanMAXX KINOMEscan)
T11 sequence (P36888 27-993 D835Y): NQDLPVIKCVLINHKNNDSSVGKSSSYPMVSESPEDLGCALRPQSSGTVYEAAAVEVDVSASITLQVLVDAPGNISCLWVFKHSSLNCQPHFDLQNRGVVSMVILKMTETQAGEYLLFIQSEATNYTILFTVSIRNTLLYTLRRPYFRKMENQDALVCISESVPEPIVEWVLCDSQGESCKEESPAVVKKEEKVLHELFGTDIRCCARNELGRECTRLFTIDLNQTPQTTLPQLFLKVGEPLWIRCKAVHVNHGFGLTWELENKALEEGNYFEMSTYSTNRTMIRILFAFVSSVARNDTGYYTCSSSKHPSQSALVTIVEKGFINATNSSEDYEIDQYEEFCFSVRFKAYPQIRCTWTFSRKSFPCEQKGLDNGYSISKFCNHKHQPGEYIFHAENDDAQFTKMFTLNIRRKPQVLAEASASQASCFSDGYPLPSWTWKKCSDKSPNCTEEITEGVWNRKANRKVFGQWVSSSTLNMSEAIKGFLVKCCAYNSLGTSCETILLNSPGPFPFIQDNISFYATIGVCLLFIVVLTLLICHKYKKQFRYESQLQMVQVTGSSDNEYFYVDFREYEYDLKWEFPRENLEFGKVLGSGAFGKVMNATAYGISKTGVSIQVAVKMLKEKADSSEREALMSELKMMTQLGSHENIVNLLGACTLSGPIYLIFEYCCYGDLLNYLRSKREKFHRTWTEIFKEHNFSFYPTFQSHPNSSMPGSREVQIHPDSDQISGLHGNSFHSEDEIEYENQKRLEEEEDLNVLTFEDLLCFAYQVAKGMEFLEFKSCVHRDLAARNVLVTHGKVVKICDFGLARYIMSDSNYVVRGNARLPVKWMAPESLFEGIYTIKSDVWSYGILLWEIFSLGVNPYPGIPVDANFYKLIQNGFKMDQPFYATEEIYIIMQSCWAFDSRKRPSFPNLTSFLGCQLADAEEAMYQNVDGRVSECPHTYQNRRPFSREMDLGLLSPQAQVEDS

[12] = target: T12, catalytic JH1 domain of JAK1 (Homo sapiens, UniProt P23458); experiment: KINOMEscan, JAK1 JH1 domain; conditions: for remaining binding at 1 µM / remaining binding at 10 µM: kinase JAK1(JH1domain-catalytic); for remaining binding at 1 µM: read-out: % of control at 1 µM; for remaining binding at 10 µM: read-out: % of control at 10 µM
T12 construct: the catalytic JH1 domains of JAK1 and JAK2; purchased Ambit Biosciences (scanMAXX KINOMEscan)

[13] = target: T13, PIK4CB (Homo sapiens, UniProt Q9UBF8); experiment: KINOMEscan, PIK4CB; conditions: for remaining binding at 1 µM: read-out: % of control at 1 µM; for remaining binding at 10 µM: read-out: % of control at 10 µM
T13 construct: purchased Ambit Biosciences (scanMAXX KINOMEscan)
T13 sequence (Q9UBF8 whole entry): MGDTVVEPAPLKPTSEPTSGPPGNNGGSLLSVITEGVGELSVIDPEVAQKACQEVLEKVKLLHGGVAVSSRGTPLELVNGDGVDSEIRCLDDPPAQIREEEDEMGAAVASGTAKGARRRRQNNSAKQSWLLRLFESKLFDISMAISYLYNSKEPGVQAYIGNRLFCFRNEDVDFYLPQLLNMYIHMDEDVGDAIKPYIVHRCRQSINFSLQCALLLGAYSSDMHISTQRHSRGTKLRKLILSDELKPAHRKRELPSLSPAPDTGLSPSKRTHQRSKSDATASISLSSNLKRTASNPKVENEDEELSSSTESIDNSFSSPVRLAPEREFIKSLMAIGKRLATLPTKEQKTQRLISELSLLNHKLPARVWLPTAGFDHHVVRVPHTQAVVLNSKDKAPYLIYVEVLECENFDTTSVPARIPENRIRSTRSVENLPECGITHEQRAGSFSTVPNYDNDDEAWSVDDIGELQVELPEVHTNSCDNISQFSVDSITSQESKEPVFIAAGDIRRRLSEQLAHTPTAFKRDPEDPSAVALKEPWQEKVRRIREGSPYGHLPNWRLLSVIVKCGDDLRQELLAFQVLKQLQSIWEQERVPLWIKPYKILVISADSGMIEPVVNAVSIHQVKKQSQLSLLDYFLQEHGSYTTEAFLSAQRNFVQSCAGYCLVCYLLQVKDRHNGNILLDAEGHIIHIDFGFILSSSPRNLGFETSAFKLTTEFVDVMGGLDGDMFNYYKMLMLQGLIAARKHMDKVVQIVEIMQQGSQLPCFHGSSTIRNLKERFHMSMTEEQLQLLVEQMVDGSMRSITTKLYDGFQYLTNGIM

[14] = 10 µM, read-out: % of control at 10 µM

T1 sequence (P00533 25-1210 T790M): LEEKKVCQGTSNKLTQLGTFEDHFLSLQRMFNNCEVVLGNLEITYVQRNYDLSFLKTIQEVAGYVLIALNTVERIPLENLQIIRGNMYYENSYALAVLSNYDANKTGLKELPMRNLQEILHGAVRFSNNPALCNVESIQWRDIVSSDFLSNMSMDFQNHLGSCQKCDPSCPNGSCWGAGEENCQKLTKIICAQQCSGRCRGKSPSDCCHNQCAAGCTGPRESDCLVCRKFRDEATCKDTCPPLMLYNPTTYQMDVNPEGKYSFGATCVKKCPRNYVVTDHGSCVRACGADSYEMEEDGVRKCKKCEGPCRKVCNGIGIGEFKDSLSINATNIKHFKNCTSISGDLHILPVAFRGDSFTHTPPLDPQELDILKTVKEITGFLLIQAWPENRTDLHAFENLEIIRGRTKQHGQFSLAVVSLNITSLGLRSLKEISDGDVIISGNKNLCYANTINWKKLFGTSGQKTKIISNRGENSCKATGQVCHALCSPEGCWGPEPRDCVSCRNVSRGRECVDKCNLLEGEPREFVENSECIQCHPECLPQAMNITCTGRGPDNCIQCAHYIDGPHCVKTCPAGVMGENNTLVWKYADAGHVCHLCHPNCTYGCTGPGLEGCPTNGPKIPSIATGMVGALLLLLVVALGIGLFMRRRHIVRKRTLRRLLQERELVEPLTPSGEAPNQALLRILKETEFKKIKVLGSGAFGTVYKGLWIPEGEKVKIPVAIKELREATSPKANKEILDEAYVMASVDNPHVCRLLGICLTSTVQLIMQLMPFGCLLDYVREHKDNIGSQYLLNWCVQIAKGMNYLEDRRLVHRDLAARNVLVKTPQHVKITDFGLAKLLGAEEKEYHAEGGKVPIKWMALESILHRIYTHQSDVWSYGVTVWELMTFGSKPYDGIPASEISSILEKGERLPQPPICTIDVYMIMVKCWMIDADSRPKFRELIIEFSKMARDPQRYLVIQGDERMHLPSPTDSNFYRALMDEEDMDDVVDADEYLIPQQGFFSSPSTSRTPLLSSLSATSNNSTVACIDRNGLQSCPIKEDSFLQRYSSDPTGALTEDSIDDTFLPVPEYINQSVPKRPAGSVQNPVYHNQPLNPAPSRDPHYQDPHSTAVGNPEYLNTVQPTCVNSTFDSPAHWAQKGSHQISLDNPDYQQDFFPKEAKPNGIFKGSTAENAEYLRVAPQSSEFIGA

Row | SMILES | remaining activity at 1 µM [1] [%] | remaining activity at 1 µM [2] [%] | remaining activity at 1 µM [3] [%] | remaining activity at 1 µM [4] [%] | remaining activity at 1 µM [5] [%] | remaining activity at 1 µM [6] [%] | remaining activity at 1 µM [7] [%] | remaining binding at 1 µM [8] [%] | remaining binding at 10 µM [8] [%] | remaining binding at 1 µM ([9]; CLK1) [%] | remaining binding at 1 µM ([10]; CLK4) [%] | remaining binding at 1 µM [11] [%] | remaining binding at 10 µM [11] [%] | remaining binding at 1 µM [12] [%] | remaining binding at 10 µM [12] [%] | remaining binding at 1 µM ([13]; kinase PIK4CB, 1 µM) [%] | remaining binding at 10 µM ([13]; kinase PIK4CB) [%] | further results
1 | Nc1cc(C(F)(F)F)c(-c2cc(N3CCOCC3)nc(N3CCOCC3)n2)cn1 [Buparlisib] | 73 | 100 | 100 | 79 | 100 | 100 | 89 | 89 | 76 | 42 | 38 | 70 | 42 | 96 | 100 | 86 | 100 | remaining activity at 10 µM [1, 14]: 69%; remaining activity at 10 µM [2, 14]: 98%; remaining activity at 10 µM [3, 14]: 100%; remaining activity at 10 µM ([4]; 10 µM, read-out: PKAC-beta (% of control at 10 µM)): 100%; remaining activity at 10 µM [5, 14]: 100%; remaining activity at 10 µM [6, 14]: 100%; remaining activity at 10 µM ([7]; 10 µM, read-out: PLK2 (% of control at 10 µM)): 100%; binding to CLK1 ([9]; 10 μM): > 80%; remaining binding at 10 µM ([9]; CLK1, 10 µM, read-out: % of control at 10 µM): 5.3%; binding to CLK4 ([10]; 10 μM): > 80%; remaining binding at 10 µM ([10]; CLK4, 10 µM, read-out: % of control at 10 µM): 13%
2 | Cn1c(=O)n(-c2ccc(C(C)(C)C#N)cc2)c2c3cc(-c4cnc5ccccc5c4)ccc3ncc21 [Dactolisib, 2-methyl-2-[4-(3-methyl-2-oxo-8-quinolin-3-yl-2,3-dihydroimidazo[4,5-c]quinolin-1-yl)-phenyl] propionitrile] | 100 | 84 | 94 | 90 | 96 | 100 | 100 | 43 |  | 13 | 12 | 13 |  | 12 |  |  |  | inhibition at 1 µM ([9]; 1 μM): > 80%; inhibition at 1 µM ([10]; 1 μM): > 80%; inhibition at 1 µM ([11]; 1 μM): > 80%; inhibition at 1 µM ([12]; 1 μM): > 80%; remaining binding at 1 µM [13]: 64%
3 | COc1ncc(-c2ccc3nccc(-c4ccnnc4)c3c2)cc1NS(=O)(=O)c1ccc(F)cc1F [Omipalisib] | 100 | 100 | 94 | 100 | 46 | 100 | 100 | 57 |  | 96 | 100 | 100 |  | 100 |  | 0.7 |  | off-target binding to PIK4CB ([13]; 1 μM): non-selective
4 | CS(=O)(=O)N1CCN(Cc2cc3nc(-c4cccc5[nH]ncc45)nc(N4CCOCC4)c3s2)CC1 [Pictilisib, 2-(1H-indazol-4-yl)-6-(4-methanesulfonyl-piperazin-1-ylmethyl)-4-morpholin-4-yl-t hieno[3,2-d]pyrimidine] |  |  |  |  |  |  |  | 11 | 0.85 |  |  |  | 5.4 | 100 | 100 | 100 | 75 | inhibition at 1 µM ([8]; 1 μM): 89%
5 | FC(F)c1nc2ccccc2n1-c1nc(N2CCOCC2)nc(N2CCOCC2)n1 [ZSTK474, 2-(difluoromethyl)-1-[4,6-di(4-morpholinyl)-1,3,5-triazin-2-yl]-1H-benzimidazole] | 100 | 95 | 100 | 100 | 100 | 100 | 100 | 100 |  | 100 | 96 | 84 |  | 98 |  | 84 |  | 
